Experimental data taken from publication PMC7782499, “Progerinin, an optimized progerin-lamin A binding inhibitor, ameliorates premature senescence phenotypes of Hutchinson-Gilford progeria syndrome” (Communications Biology, 2021).
Values joined by “and” are separate entries in the source; they are usually repeats but may differ in a detail not shown here. Equal values may be shown once.

Biological target: T1, progerin (Homo sapiens, UniProt P02545)
T1 sequence (P02545 1-614 isoform P02545-6): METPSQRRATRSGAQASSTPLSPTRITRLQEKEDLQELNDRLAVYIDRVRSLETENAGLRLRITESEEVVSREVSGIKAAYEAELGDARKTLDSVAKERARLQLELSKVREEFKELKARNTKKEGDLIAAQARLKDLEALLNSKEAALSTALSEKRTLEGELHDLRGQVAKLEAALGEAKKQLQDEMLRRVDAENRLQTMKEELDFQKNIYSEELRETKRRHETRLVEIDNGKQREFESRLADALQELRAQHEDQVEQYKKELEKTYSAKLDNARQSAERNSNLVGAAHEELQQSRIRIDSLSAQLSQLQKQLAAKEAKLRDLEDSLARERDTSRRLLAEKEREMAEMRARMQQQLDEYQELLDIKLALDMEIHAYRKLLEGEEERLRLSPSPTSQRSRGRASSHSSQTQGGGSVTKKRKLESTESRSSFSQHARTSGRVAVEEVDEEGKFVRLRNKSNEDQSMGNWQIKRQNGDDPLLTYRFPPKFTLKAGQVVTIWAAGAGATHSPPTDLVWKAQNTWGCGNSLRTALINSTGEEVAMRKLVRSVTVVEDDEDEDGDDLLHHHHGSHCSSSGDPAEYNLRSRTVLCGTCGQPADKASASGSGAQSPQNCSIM
Test: Progerin expression in HGPS patient cells (western blot, immunostaining)
Assay type: cell-based
Parameters: host or cells: HGPS patient fibroblasts
Conditions: for Progerin intensity after treatment with chemicals, Ave: average; for Progerin intensity after treatment with chemicals: single replicates
Procedure: Fig. 1 SLC-D011 ameliorates premature aging features of HGPS. A. HEK293 cells were transiently transfected with expression vector encoding wild-type lamin A (WT-LA), lamin A-C661A (LA-C661A), progerin, or progerin-C611A. LA-C661A or progerin-C611A with point mutation in CaaX motif was predicted to be lack of farnesylation, […] that of authentic WT-LA or progerin. GFP-conjugated empty expression vector was used as a negative control. Cells were visualized at 24 h after transfection. B Transient transfection of HEK293 cells with expression vector encoding progerin or progerin-G611A leads to reduced expression of H3K9me3 (n = 3 independent experiments; two-tailed Student’s t test). C. JH4 derivatives (JH010 and SLC-D011(D011)) inhibit lamin A and progerin interaction. For binding inhibition assay, bead-conjugated lamin A (GST-LA) was incubated with HEK293 cells, transiently transfected with GFP-progerin (PG), and treated with indicated chemicals. Actin was used as a loading control. PPT, co-precipitated materials with recombinant proteins; Sup supernatant. 5 μM of each chemical was used for binding assay. […] H3K9me3 reduction is a well-known marker for premature aged cells. Thus, H3K9me3 expression was evaluated by immunostaining. […] E SLC-D011 obviously suppresses progerin expression. […] F SLC-D011 reduces the expression of progerin in other HGPS cells (AG11513 and AG11498, Coriell Cell Repositories). […] G JH4, JH010, and SLC-D011 promote cell proliferation. Cell viability was determined by MTT assay after incubation with chemicals for 7 days (n = 3 independent experiments; two-tailed Student’s t test). H JH4, JH010, and SLC-D011 show similar activity for ameliorating nuclear deformation. After incubation with chemicals for 7 days, cells were stained with progerin and H3K9me3 antibodies (n = 3 independent experiment; two-tailed Student’s t test), **p < 0.001. Data are reported as mean ± SD. “Con” means Dimethyl sulfoxide (DMSO)-treated control. The data are normalized to DMSO-treated cells.
Protein was extracted from cells using a radioimmunoprecipitation assay (RIPA) buffer (50 mM Tris-Cl, pH 7.5, 150 mM NaCl, 1% NP-40, 0.1% SDS, and 10% sodium deoxycholate). Samples were separated by sodium dodecyl sulfate-polyacrylamide gel electrophoresis (SDS-PAGE) and transferred to polyvinylidene difluoride (PVDF) membranes. Blotted membranes were blocked with 3% skimmed milk in TBS-T buffer (20 mM Tris pH 7.6, 150 mM NaCl, and 0.05% Tween 20) for 1 h followed by incubation with specific primary antibodies. Horseradish peroxidase (HRP)-conjugated goat anti-mouse, goat anti-rabbit, and mouse anti-goat IgG antibodies (Pierce, Thermo Fisher Scientific, Inc., Rockford, IL, USA) were used as secondary antibodies. Peroxidase activity was detected by chemiluminescence using an ECL kit (Intron, Seoul, Korea) following the manufacturer’s instructions. Bands were quantified using Image J software (National Institute of Health, NIH).
Cells were cultured on coverslips, washed with PBS, fixed with 4% paraformaldehyde (PFA) for 30 min at RT, and then permeabilized with 0.2% Triton X-100 at RT for 5 min. After treatment with blocking solution (anti-Human antibody diluted 1:400 in PBS) for 1 h, cells were incubated with anti-lamin A/C (1:400), anti-progerin (1:100), Ki67 (1:200), and anti-H3K9me3 (1:200) in blocking buffer overnight at 4 °C. Finally, cells were incubated with fluorescein isothiocyanate and rhodamine-conjugated secondary antibodies at 4 °C for 7 h. Nuclei were stained with DAPI (4, 6-diamidino-2-phenylindole) at RT for 10 min. After cells were washed three times with PBS, coverslips were mounted with mounting solution (H-5501; Vector Laboratories, Burlingame, CA, USA). Immunofluorescence signal was detected with a fluorescence microscopy (Zeiss and Logos).
Fig. S7. Therapeutic effect of SLC-D011 at a low concentration. […]
AG11513; B) dose-dependently. […]

CC1(C)Oc2cc3oc(=O)ccc3cc2C[C@@H]1OC/C=C/c1ccccc1 [SLC-D011]
Progerin intensity after treatment with SLC-D011, Ave (AG03198, 10nM, average (Fig S7C)): 7.117 AU | Progerin intensity after treatment with SLC-D011 (AG03198, 10nM, single replicates (Fig S7C)): 5.32 AU and 7.51 AU and 8.52 AU | Progerin intensity after treatment with SLC-D011, Ave (AG03198, 50nM, average (Fig S7C)): 3.183 AU | Progerin intensity after treatment with SLC-D011 (AG03198, 50nM, single replicates (Fig S7C)): 2.38 AU and 3.11 AU and 4.06 AU | Progerin intensity after treatment with SLC-D011, Ave (AG03198, 100nM, average (Fig S7C)): 1.91 AU | Progerin intensity after treatment with SLC-D011 (AG03198, 100nM, single replicates (Fig S7C)): 2.22 AU and 1.69 AU and 1.82 AU | Progerin intensity after treatment with SLC-D011, Ave (AG03198, 500nM, average (Fig S7C)): 1.503 AU | Progerin intensity after treatment with SLC-D011 (AG03198, 500nM, single replicates (Fig S7C)): 2.58 AU and 0.9 AU and 1.03 AU | Progerin intensity after treatment with SLC-D011, Ave (AG03198, 1μM, average (Fig S7C)): 0.68 AU | Progerin intensity after treatment with SLC-D011 (AG03198, 1μM, single replicates (Fig S7C)): 1.32 AU and 0.45 AU and 0.27 AU | Progerin intensity after treatment with chemicals, Ave (AG03198, 2μM): 1.893 AU | Progerin intensity after treatment with SLC-D011, Ave (AG03198, 2μM, average (Fig S7C)): 0.14 AU | Progerin intensity after treatment with chemicals (AG03198, 2μM): 1.798 AU and 1.397 AU and 2.484 AU | Progerin intensity after treatment with SLC-D011 (AG03198, 2μM, single replicates (Fig S7C)): 0 AU and 0.23 AU and 0.19 AU | Progerin intensity after treatment with chemicals, Ave (AG03198, 5μM): 0.1657 AU | Progerin intensity after treatment with SLC-D011, Ave (AG03198, 5μM, average (Fig S7C)): 0.02333 AU | Progerin intensity after treatment with chemicals (AG03198, 5μM): 0 AU and 0.123 AU and 0.3741 AU | Progerin intensity after treatment with SLC-D011 (AG03198, 5μM, single replicates (Fig S7C)): 0 AU (2×) and 0.07 AU | Progerin intensity after treatment with SLC-D011, Ave (AG11498, 10nM, average (Fig S7C)): 6.647 AU | Progerin intensity after treatment with SLC-D011 (AG11498, 10nM, single replicates (Fig S7C)): 6.56 AU and 6.24 AU and 7.14 AU | Progerin intensity after treatment with SLC-D011, Ave (AG11498, 50nM, average (Fig S7C)): 4.11 AU | Progerin intensity after treatment with SLC-D011 (AG11498, 50nM, single replicates (Fig S7C)): 2.38 AU and 3.5 AU and 6.45 AU | Progerin intensity after treatment with SLC-D011, Ave (AG11498, 100nM, average (Fig S7C)): 1.733 AU | Progerin intensity after treatment with SLC-D011 (AG11498, 100nM, single replicates (Fig S7C)): 0 AU and 1.5 AU and 3.7 AU | Progerin intensity after treatment with SLC-D011, Ave (AG11498, 500nM, average (Fig S7C)): 0.9 AU | Progerin intensity after treatment with SLC-D011 (AG11498, 500nM, single replicates (Fig S7C)): 0 AU and 0.6 AU and 2.1 AU | Progerin intensity after treatment with SLC-D011, Ave (AG11498, 1μM, average (Fig S7C)): 0.4533 AU | Progerin intensity after treatment with SLC-D011 (AG11498, 1μM, single replicates (Fig S7C)): 0 AU (2×) and 1.36 AU | Progerin intensity after treatment with SLC-D011, Ave (AG11498, 2μM, average (Fig S7C)): 0.3333 AU | Progerin intensity after treatment with SLC-D011 (AG11498, 2μM, single replicates (Fig S7C)): 0 AU (2×) and 1 AU | Progerin intensity after treatment with SLC-D011, Ave (AG11498, 5μM, average (Fig S7C)): 0.25 AU | Progerin intensity after treatment with SLC-D011 (AG11498, 5μM, single replicates (Fig S7C)): 0 AU (2×) and 0.75 AU | Progerin intensity after treatment with SLC-D011, Ave (AG11498, average (Fig S3H)): 1.892 AU | Progerin intensity after treatment with SLC-D011 (AG11498, single replicates (Fig S3H)): 5.217 AU and 0.1632 AU and 0.2958 AU | Progerin intensity after treatment with SLC-D011, Ave (AG11513, 10nM, average (Fig S7C)): 5.123 AU | Progerin intensity after treatment with SLC-D011 (AG11513, 10nM, single replicates (Fig S7C)): 2.96 AU and 6.48 AU and 5.93 AU | Progerin intensity after treatment with SLC-D011, Ave (AG11513, 50nM, average (Fig S7C)): 3.793 AU | Progerin intensity after treatment with SLC-D011 (AG11513, 50nM, single replicates (Fig S7C)): 3.06 AU and 4.3 AU and 4.02 AU | Progerin intensity after treatment with SLC-D011, Ave (AG11513, 100nM, average (Fig S7C)): 2.487 AU | Progerin intensity after treatment with SLC-D011 (AG11513, 100nM, single replicates (Fig S7C)): 2.07 AU and 2.27 AU and 3.12 AU | Progerin intensity after treatment with SLC-D011, Ave (AG11513, 500nM, average (Fig S7C)): 1.19 AU | Progerin intensity after treatment with SLC-D011 (AG11513, 500nM, single replicates (Fig S7C)): 0.81 AU and 1.08 AU and 1.68 AU | Progerin intensity after treatment with SLC-D011, Ave (AG11513, 1μM, average (Fig S7C)): 0.59 AU | Progerin intensity after treatment with SLC-D011 (AG11513, 1μM, single replicates (Fig S7C)): 0.55 AU and 0.6 AU and 0.62 AU | Progerin intensity after treatment with SLC-D011, Ave (AG11513, 2μM, average (Fig S7C)): 0.2167 AU | Progerin intensity after treatment with SLC-D011 (AG11513, 2μM, single replicates (Fig S7C)): 0.27 AU and 0.22 AU and 0.16 AU | Progerin intensity after treatment with SLC-D011, Ave (AG11513, 5μM, average (Fig S7C)): 0.09 AU | Progerin intensity after treatment with SLC-D011 (AG11513, 5μM, single replicates (Fig S7C)): 0.2 AU and 0 AU and 0.07 AU | Progerin intensity after treatment with SLC-D011, Ave (AG11513, average (Fig S3H)): 1.455 AU | Progerin intensity after treatment with SLC-D011 (AG11513, single replicates (Fig S3H)): 1.494 AU and 1.1106 AU and 1.761 AU | Concentration enough for eliminating progerin (HGPS cells): 100 nM | Effect on progerin expression (HGPS cells): reduce progerin expression | Progerin intensity after treatment with SLC-D011, Ave (N9, average (Fig S3H)): 0 AU | Progerin intensity after treatment with SLC-D011 (N9, single replicates (Fig S3H)): 0 AU

CC1(C)Oc2cc3oc(=O)ccc3cc2CC1OC(=O)C=Cc1cccnc1 (stereo not shown) [JH4]
Progerin intensity after treatment with chemicals, Ave (AG03198, 2μM): 15.1057 AU | Progerin intensity after treatment with chemicals (AG03198, 2μM): 13.2274 AU and 13.4377 AU and 18.652 AU | Progerin intensity after treatment with chemicals, Ave (AG03198, 5μM): 4.247 AU | Progerin intensity after treatment with chemicals (AG03198, 5μM): 1.2854 AU and 1.491 AU and 9.966 AU
